The assay has as its system parental melanoma. Kind of assay: Immune infiltrates (immunofluorescence, flow cytometry) in parental melanomas and draining lymph nodes. Type of assay: in vivo, mouse. How it is done:
Immunohistochemical analyses. Mouse tumors were collected 5 days after treatment initiation and formalin-fixed paraffin-embedded (FFPE). Slides were baked for 60 minutes in a 60° C. oven and loaded into the Bond III™ staining platform. Slides were antigen retrieved in Bond™ Epitope Retrieval 1 for 30 minutes at 100° C. then incubated with CD3 (Abcam™, ab16669) at 1:150 diluted in Bond™ Primary Antibody diluent for 30 minutes at room temperature. Primary antibody was detected using Bond™ Polymer Refine Detection kit, slides were developed in DAB, then dehydrated and coverslipped. For each of 3 samples per group, 3 random 20× magnification fields were chosen at the tumor center for quantification. The open-source CellProfiler™ cell image analysis software3 was used to quantify positively stained cells in each image. The analysis pipeline utilized the UnmixColors module to separate each image into one of the Hematoxylin stain and one of the DAB stain. The EnhanceOrSuppressFeatures module was applied to the DAB image to enhance cellular features. Finally, the IdentifyPrimaryObjects module was used to count the number of cells present in the enhanced image.
Immunofluorescence analyses. […]
Flow cytometry. […] Flow cytometry data were acquired on the BD™ LSRII flow cytometer and analyzed using FlowJo™ software (Tree Star™).
In general terms: Flow cytometry measures light scatter and fluorescence of single cells or particles in a stream.

In the case of `CC(C)Cn1cnc2c(N)nc3ccccc3c21` [imiquimod], the “PD-L2 expression on CD11c+ dendritic cells” value (draining lymph nodes, parental melanoma-bearing mice) is “reduced”. In addition, the “granzyme B+ fraction of CD8+ TILs” value (parental melanomas, imiquimod alone or with anti-PD-1 or aFP) was “expanded”.
